Data from patent US20080194545A1, “ANTIMICROBIAL COMPOSITIONS AND METHODS OF USE” (TRIUS THERAPEUTICS, priority 2007, published 2008).

How the values were obtained:
[1] = tested on: S. aureus; test: Antibacterial activity, minimal inhibitory concentration (MIC) against S. aureus; type: cell-based; settings: Staphylococcus aureus
Source text: Antibacterial activity as measured by the minimal inhibitory concentrations (MIC) and minimal bactericidal concentrations of compounds are well known (see., e.g., National Committee for Clinical Laboratory Standards 2000 Performance standards for antimicrobial disk susceptibility tests: approved standard, 7th ed. M2-A7, vol. 20, no. 1, Committee for Clinical Laboratory Standards, Wayne, Pa.)
In vitro testing for antibacterial activity may be accomplished through use of a whole-cell bacterial growth inhibition assay. For example, an […] assay identifies a substance that inhibits bacterial growth. Microtiter plates are prepared with serial dilutions of the test compound, adding to the preparation a given amount of growth substrate, and providing a preparation of bacteria. Inhibition of bacterial growth is determined, for example, by observing changes in optical densities of the bacterial cultures. Inhibition of bacterial growth is determined, for example, by comparing (in the presence and absence of a test compound) the rate of growth or the absolute growth of bacterial cells. Inhibition includes a reduction of one of the above measurements by at least 20%.

[2] = target: S. Aureus MetRS (Staphylococcus aureus, UniProt Q5HII6); test: MetRS inhibition (coupling of radiolabeled methionine to tRNAMet, TCA-precipitable counts); type: biochemical; settings: purified MetRS enzyme
Source text: The inhibition of MetRS activity may be monitored through use of in vitro bio-chemical assays through use of purified MetRS protein. Synthesis of a MetRS polypeptide can readily be accomplished through use of any of the various art-known techniques. For instance, a MetRS polypeptide can be synthesized chemically in vitro or recombinant DNA methods which are well known to those skilled in the art can be used to construct expression vectors containing MetRS coding sequences, and appropriate transcriptional/translational control signals. These methods include, for example, in vitro recombinant DNA techniques, synthetic techniques and in vivo recombination/genetic recombination. Alternatively, RNA capable of encoding target gene protein sequences can be chemically synthesized through use of synthesizers, for example.
The compounds of the present invention may also be evaluated for the ability to inhibit MetRS activity through use of known methods that measure the MetRS-dependent coupling of methionine to its cognate tRNA. In the assay, radiolabeled methionine, tRNA^Met and purified MetRS enzyme are incubated under appropriate conditions in the presence and absence of test compound and the amount of TCA-precipitable counts, which reflects the amount of methionine coupled to tRNA^Met, is determined.

Row | MIC [1] | IC50 [2] | SMILES
1 | ≤ 8 µg/mL | < 0.05 µM | COc1ccc(Oc2cc(NCc3nc4ccccc4[nH]3)nc(N3CCN(c4ncccn4)CC3)n2)c(Cl)c1 [Compound 6.45]
2 | ≤ 8 µg/mL | < 0.05 µM | COc1cc(Cl)c(Oc2cc(NCc3nc4ccccc4[nH]3)nc(N3CCOCC3)n2)cc1OC [Compound 6.86]
3 | ≤ 8 µg/mL | < 0.05 µM | COc1ccnc(N2CCN(c3nc(NCc4nc5ccccc5[nH]4)cc(Oc4cc(OC)c(OC)cc4Cl)n3)CC2)n1 [Compound 6.96]
4 | ≤ 8 µg/mL | < 0.05 µM | COc1ccc(Oc2cc(NCc3nc4ccccc4[nH]3)nc(N3CCN(C(=O)C4CCCO4)CC3)n2)c(Cl)c1 (centres unmarked) [Compound 6.61]
5 | ≤ 8 µg/mL | < 0.05 µM | COc1ccc(Oc2cc(N3CCCC3CO)nc(NCc3nc4ccccc4[nH]3)n2)c(Cl)c1 (centres unmarked) [Compound 5.51]
6 | ≤ 8 µg/mL | < 0.05 µM | COc1cc(Cl)c(Oc2cc(NCc3nc4ccccc4[nH]3)nc(N3CCC(N4CCOCC4)CC3)n2)cc1OC [Compound 6.138]
7 | ≤ 8 µg/mL | < 0.05 µM | COc1cc(Cl)c(Oc2cc(NCc3nc4ccccc4[nH]3)nc(N3CCN(c4ccccn4)CC3)n2)cc1OC [Compound 6.91]
8 | ≤ 8 µg/mL | < 0.05 µM | COc1ccc(Oc2cc(NCc3nc4ccccc4[nH]3)nc(N3CCN(C(C)=O)CC3)n2)c(Cl)c1 [Compound 6.19]
9 | ≤ 8 µg/mL | < 0.05 µM | COc1cc(Cl)c(Oc2cc(NCc3nc4ccccc4[nH]3)nc(N3CCN(CCN4CCCC4)CC3)n2)cc1OC [Compound 6.142]
10 | ≤ 8 µg/mL | < 0.05 µM | COc1cc(Cl)c(Oc2cc(NCc3nc4ccccc4[nH]3)nc(N(C)C)n2)cc1OC [Compound 6.83]
11 | ≤ 8 µg/mL | < 0.05 µM | COc1ccc(Oc2cc(N3CCN(C(=O)c4ccco4)CC3)nc(NCc3nc4ccccc4[nH]3)n2)c(Cl)c1 [Compound 5.50]
12 | ≤ 8 µg/mL | < 0.05 µM | COc1cc(Cl)c(Oc2cc(NCc3nc4ccccc4[nH]3)nc(N3CCN(C(C)=O)CC3)n2)cc1OC [Compound 6.55]
13 | ≤ 8 µg/mL | < 0.05 µM | COc1ccc(Oc2cc(NNc3cc(=O)c4ccccc4[nH]3)nc(N(C)C)n2)c(Cl)c1 [Compound 6.06]
14 | ≤ 8 µg/mL | < 0.05 µM | COc1cc(Cl)c(Oc2cc(NCc3nc4ccccc4[nH]3)nc(N3CCN(c4nccs4)CC3)n2)cc1OC [Compound 6.107]
15 | ≤ 8 µg/mL | < 0.05 µM | COc1cc(Cl)c(Oc2cc(NCc3nc4ccccc4[nH]3)nc(N3CCCN(C(C)=O)CC3)n2)cc1OC [Compound 6.63]
16 | ≤ 8 µg/mL | < 0.05 µM | COc1cc(Cl)c(Oc2cc(NCc3nc4ccccc4[nH]3)nc(N3CCN(c4cnccn4)CC3)n2)cc1OC [Compound 6.93]
17 | ≤ 8 µg/mL | < 0.05 µM | COc1cc(Cl)c(Oc2cc(NCc3nc4ccccc4[nH]3)nc(N3CCC(CN4CCCC4=O)CC3)n2)cc1OC [Compound 6.145]
18 | ≤ 8 µg/mL | – | COc1ccc(Oc2cc(N3CCC(O)C3)nc(NCc3nc4ccccc4[nH]3)n2)c(Cl)c1 (centres unmarked) [Compound 5.35]
19 | ≤ 8 µg/mL | < 0.05 µM | COc1cc(Cl)c(Oc2cc(NCc3nc4ccccc4[nH]3)nc(N3CCN(C(=O)N4CCCC4)CC3)n2)cc1OC [Compound 6.144]
20 | ≤ 8 µg/mL | < 0.05 µM | COc1cc(Cl)c(Oc2cc(NCc3nc4ccccc4[nH]3)nc(N3CCN(C(=O)CNc4nccs4)CC3)n2)cc1OC [Compound 6.126]
21 | ≤ 8 µg/mL | < 0.05 µM | COc1ccc(Oc2cc(N3CCOCC3)nc(NCc3nc4ccccc4[nH]3)n2)c(Cl)c1 [Compound 5.07]
22 | ≤ 8 µg/mL | < 0.05 µM | COc1cc(Cl)c(Oc2cc(NCc3nc4ccccc4[nH]3)nc(N3CCN(CCCN4CCOCC4)CC3)n2)cc1OC [Compound 6.94]

Row | MIC [1] | IC50 [2] | SMILES
23 | ≤ 8 µg/mL | < 0.05 µM | COc1cc(Cl)c(Oc2cc(NCc3nc4ccccc4[nH]3)nc(N3CCNC(=O)C3)n2)cc1OC [Compound 6.56]
24 | ≤ 8 µg/mL | < 0.05 µM | COc1cc(Cl)c(Oc2cc(NCc3nc4ccccc4[nH]3)nc(N3CCN(C(=O)N4CCOCC4)CC3)n2)cc1OC [Compound 6.134]
25 | ≤ 8 µg/mL | < 0.05 µM | COc1ccc(Oc2cc(N3CC(C)NC(C)C3)nc(NCc3nc4ccccc4[nH]3)n2)c(Cl)c1 (centres unmarked) [Compound 5.26]
26 | ≤ 8 µg/mL | < 0.05 µM | O=C1CN(c2cc(Oc3ccc(Cl)cc3Cl)nc(NCc3nc4ccccc4[nH]3)n2)CCN1 [Compound 5.37]
27 | ≤ 8 µg/mL | < 0.05 µM | COc1cc(Cl)c(Oc2cc(NCc3nc4ccccc4[nH]3)nc(N3CCN(c4ccncc4)CC3)n2)cc1OC [Compound 6.95]
28 | ≤ 8 µg/mL | < 0.05 µM | COc1ccc(Oc2cc(NCc3nc4ccccc4[nH]3)nc(N3CCNC(=O)C3)n2)c(Cl)c1 [Compound 6.30]
29 | ≤ 8 µg/mL | < 0.05 µM | O=C1CN(c2nc(NCc3nc4ccccc4[nH]3)cc(Oc3ccc(Cl)cc3Cl)n2)CCN1 [Compound 6.23]
30 | ≤ 8 µg/mL | < 0.05 µM | COc1cc(Cl)c(Oc2cc(NCc3nc4ccccc4[nH]3)nc(N3CCN(C(=O)C4CC4)CC3)n2)cc1OC [Compound 6.88]
31 | ≤ 8 µg/mL | < 0.05 µM | COc1cc(Cl)c(Oc2cc(NCc3nc4ccccc4[nH]3)nc(N3CCN(c4ncncn4)CC3)n2)cc1OC [Compound 6.105]
32 | ≤ 8 µg/mL | < 0.05 µM | COc1ccc(Oc2cc(NCc3nc4ccccc4[nH]3)nc(N3CCN(C(=O)N(C)C)CC3)n2)c(Cl)c1 [Compound 6.49]
33 | ≤ 8 µg/mL | < 0.05 µM | COc1cc(Cl)c(Oc2cc(NCc3nc4ccccc4[nH]3)nc(N3CCN(CCn4ccnc4)CC3)n2)cc1OC [Compound 6.113]
34 | ≤ 8 µg/mL | < 0.05 µM | CC(=O)N1CCN(c2nc(NCc3nc4ccccc4[nH]3)cc(Oc3ccc4ncccc4c3Cl)n2)CC1 [Compound 6.150]
35 | ≤ 8 µg/mL | < 0.05 µM | CC1CN(c2cc(Oc3ccc(Cl)cc3Cl)nc(NCc3nc4ccccc4[nH]3)n2)CC(C)N1 (centres unmarked) [Compound 5.28]
36 | ≤ 8 µg/mL | < 0.05 µM | COc1cc(Cl)c(Oc2cc(NCc3nc4ccccc4[nH]3)nc(N3CCN(c4ncccn4)CC3)n2)cc1OC [Compound 6.90]
37 | ≤ 8 µg/mL | – | COc1ccc(Oc2cc(-n3cnc(C)c3)nc(NCc3nc4ccccc4[nH]3)n2)c(Cl)c1 [Compound 5.53]
38 | ≤ 8 µg/mL | < 0.05 µM | COc1ccc(Oc2cc(NCc3nc4ccccc4[nH]3)nc(N3CCN(C(=O)C4CC4)CC3)n2)c(Cl)c1 [Compound 6.48]
39 | ≤ 8 µg/mL | < 0.05 µM | COc1cc(Cl)c(Oc2cc(NCc3nc4ccccc4[nH]3)nc(N3CCN(Cn4ccnc4C)CC3)n2)cc1OC [Compound 6.143]
40 | ≤ 8 µg/mL | < 0.05 µM | CCN(C(C)=O)C1CCN(c2nc(NCc3nc4ccccc4[nH]3)cc(Oc3ccc(OC)cc3Cl)n2)C1 (centres unmarked) [Compound 6.62]
41 | ≤ 8 µg/mL | < 0.05 µM | COc1ccc(Oc2cc(N3CCN(c4ncccn4)CC3)nc(NCc3nc4ccccc4[nH]3)n2)c(Cl)c1 [Compound 5.70]
42 | ≤ 8 µg/mL | < 0.05 µM | COc1cc(Cl)c(Oc2cc(NCc3nc4ccccc4[nH]3)nc(N3CCN(CCN4CCOCC4)CC3)n2)cc1OC [Compound 6.140]
43 | ≤ 8 µg/mL | < 0.05 µM | COc1ccc(Oc2cc(N(C)C)nc(NCc3nc4ccccc4[nH]3)n2)c(Cl)c1 [Compound 5.10]
44 | ≤ 8 µg/mL | < 0.05 µM | COc1cc(Cl)c(Oc2cc(NCc3nc4ccccc4[nH]3)nc(N3CCN(C(=O)N(C)C)CC3)n2)cc1OC [Compound 6.89]
